We go through 35 compounds from ChEMBL document CHEMBL1132622, “Synthesis, structure-activity relationships, and in vivo evaluations of substituted di-tert-butylphenols as a novel class of potent, selective, and orally active cyclooxygenase-2 inhibitors. 2. 1,3,4- and 1,2,4-thiadiazole series” (J Med Chem, 1999).

Bounds are passed on as bounds.

In assay [1] the target is T1, Prostaglandin G/H synthase 2 (Homo sapiens, UniProt P35354).
T1 sequence (P35354 whole entry): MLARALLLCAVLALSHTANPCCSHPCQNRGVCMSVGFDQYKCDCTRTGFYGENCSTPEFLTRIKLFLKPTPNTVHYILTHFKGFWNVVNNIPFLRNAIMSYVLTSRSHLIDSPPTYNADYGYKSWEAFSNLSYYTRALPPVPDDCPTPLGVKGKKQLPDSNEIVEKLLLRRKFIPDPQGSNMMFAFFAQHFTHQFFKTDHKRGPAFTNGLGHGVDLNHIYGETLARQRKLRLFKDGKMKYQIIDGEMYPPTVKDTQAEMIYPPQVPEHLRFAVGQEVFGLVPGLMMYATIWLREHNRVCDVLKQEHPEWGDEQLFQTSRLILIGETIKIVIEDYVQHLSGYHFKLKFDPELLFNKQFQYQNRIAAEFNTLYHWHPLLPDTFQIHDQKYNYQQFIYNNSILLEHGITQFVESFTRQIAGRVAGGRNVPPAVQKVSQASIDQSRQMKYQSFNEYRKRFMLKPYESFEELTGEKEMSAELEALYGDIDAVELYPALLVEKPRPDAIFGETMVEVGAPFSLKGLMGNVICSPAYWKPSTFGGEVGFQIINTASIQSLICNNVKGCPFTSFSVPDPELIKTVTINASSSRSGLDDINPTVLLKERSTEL
Briefly: Inhibition of recombinant human prostaglandin G/H synthase 2 (COX-2).

Assay [2] has as its target T2, Prostaglandin G/H synthase 1 (Ovis aries, UniProt P05979).
T2 sequence (P05979 whole entry): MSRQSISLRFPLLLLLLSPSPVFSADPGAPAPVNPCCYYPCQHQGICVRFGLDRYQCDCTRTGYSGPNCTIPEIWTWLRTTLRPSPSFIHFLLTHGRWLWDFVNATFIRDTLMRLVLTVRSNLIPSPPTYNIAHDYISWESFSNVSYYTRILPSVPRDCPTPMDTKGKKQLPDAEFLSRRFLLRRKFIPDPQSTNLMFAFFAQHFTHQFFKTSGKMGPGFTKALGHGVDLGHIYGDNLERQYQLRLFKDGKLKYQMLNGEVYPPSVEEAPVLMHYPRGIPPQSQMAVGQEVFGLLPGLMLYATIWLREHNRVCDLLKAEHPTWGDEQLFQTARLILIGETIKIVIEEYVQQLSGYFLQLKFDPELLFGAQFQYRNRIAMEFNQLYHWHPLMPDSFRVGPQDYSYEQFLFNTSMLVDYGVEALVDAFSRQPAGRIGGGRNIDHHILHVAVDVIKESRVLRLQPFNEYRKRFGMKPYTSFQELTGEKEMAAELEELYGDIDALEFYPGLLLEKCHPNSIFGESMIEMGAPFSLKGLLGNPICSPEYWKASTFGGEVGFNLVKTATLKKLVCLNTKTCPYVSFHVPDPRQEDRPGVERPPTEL
Briefly: IC50 value against ovine Prostaglandin G/H synthase 1.

Assay [3] addresses Prostaglandin G/H synthase 1 (Homo sapiens, UniProt P23219). Briefly: IC50 value against Prostaglandin G/H synthase 1 of human platelet rich plasma. Format: cell-free.
Assay [4] addresses T3, Prostaglandin G/H synthase 2 (Mus musculus, UniProt Q05769).
T3 sequence (Q05769 whole entry): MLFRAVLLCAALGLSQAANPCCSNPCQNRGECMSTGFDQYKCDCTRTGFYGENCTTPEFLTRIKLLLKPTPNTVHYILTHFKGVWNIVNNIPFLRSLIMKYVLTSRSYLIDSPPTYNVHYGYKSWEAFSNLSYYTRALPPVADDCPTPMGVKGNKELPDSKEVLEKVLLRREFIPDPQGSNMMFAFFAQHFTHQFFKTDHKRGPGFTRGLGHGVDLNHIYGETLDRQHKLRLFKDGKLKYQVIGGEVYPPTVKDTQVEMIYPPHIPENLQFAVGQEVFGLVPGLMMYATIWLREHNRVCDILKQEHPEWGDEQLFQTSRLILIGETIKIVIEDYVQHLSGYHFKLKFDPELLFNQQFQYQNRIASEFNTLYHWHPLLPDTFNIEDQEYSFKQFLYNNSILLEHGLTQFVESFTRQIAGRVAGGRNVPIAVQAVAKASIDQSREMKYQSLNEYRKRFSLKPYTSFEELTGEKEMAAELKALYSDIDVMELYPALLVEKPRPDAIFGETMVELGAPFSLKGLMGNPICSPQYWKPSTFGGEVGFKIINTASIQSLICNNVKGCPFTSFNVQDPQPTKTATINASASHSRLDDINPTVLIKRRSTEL

In assay [5] the target is T3, Prostaglandin G/H synthase 2. As to the kind of experiment: IC50 value against Prostaglandin G/H synthase 2 of murine J774A.1 cell line.

Prostaglandin G/H synthase 1 (Homo sapiens, UniProt P23219), sequence (P23219 whole entry): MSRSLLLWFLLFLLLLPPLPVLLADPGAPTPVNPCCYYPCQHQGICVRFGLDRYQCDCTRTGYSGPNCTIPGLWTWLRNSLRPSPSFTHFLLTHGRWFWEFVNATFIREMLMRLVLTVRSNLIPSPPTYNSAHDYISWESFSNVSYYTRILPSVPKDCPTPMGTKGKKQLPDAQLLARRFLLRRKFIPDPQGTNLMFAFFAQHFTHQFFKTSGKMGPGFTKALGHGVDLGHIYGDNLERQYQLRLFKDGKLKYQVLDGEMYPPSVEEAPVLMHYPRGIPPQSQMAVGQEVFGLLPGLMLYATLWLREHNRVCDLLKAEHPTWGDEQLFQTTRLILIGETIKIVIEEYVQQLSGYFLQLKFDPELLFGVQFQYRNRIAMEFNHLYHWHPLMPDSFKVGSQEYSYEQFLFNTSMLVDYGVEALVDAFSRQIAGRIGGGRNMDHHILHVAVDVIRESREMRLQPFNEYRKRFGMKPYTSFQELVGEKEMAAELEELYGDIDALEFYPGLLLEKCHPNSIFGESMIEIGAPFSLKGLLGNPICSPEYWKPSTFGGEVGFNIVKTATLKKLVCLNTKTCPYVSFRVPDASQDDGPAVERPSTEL

Usually IC50 stands for the concentration at which inhibition is half-maximal. As for `CSc1nnc(-c2cc(C(C)(C)C)c(O)c(C(C)(C)C)c2)s1`, the 50% inhibitory concentration (IC50) in assay [1] is 0.15 µM; in assay [2], 0.51 µM; in assay [3], 0.18 µM; in assay [4], 0.009 µM.

As for `CC(C)(C)c1cc(-c2nsc(N)n2)cc(C(C)(C)C)c1O`, the IC50 in assay [1] and in assay [2] was more than 20 µM each time.

With `CCSc1nnc(-c2cc(C(C)(C)C)c(O)c(C(C)(C)C)c2)s1`, the half-inhibitory concentration (IC50) in assay [1] was found to be 0.14 µM; in assay [2] it was 100 µM; in assay [3], 3.1 µM; in assay [4], 0.18 µM.

Turning to `CC(C)(C)c1cc(-c2nnc(O)s2)cc(C(C)(C)C)c1O`, the IC50 is more than 20 µM in assay [1], more than 20 µM in assay [2], 4.1 µM in assay [3] and 0.24 µM in assay [4].

With `CC(C)(C)c1cc(-c2nnc(N=C(N)N)s2)cc(C(C)(C)C)c1O`, the IC50 in assay [1] turned out to be 17 µM; in assay [2] it was 88 µM; in assay [3] it was 2.8 µM; in assay [4] it was 0.21 µM.

As for `COc1nnc(-c2cc(C(C)(C)C)c(O)c(C(C)(C)C)c2)s1`, the IC50 in assay [1] was 3 µM; in assay [2] it was 2.6 µM; in assay [3], 0.2 µM.

Take `CC(C)(C)c1cc(-c2nc(=O)s[nH]2)cc(C(C)(C)C)c1O`: the IC50 in assay [1] stood at 1.1 µM; in assay [2], 83 µM; in assay [3], 0.43 µM; in assay [4], 0.018 µM.

Turning to `CC(C)(C)c1cc(-c2nnc(S)o2)cc(C(C)(C)C)c1O`, the IC50 in assay [1] is 47 µM; in assay [2], more than 20 µM; in assay [3] it was more than 20 µM; in assay [4], 0.92 µM.

In the case of `CC(C)Oc1nnc(-c2cc(C(C)(C)C)c(O)c(C(C)(C)C)c2)s1`, the IC50 in assay [1] was more than 20 µM; in assay [5] it was “Not Active”; in assay [2], more than 20 µM; in assay [3] it was 4.5 µM.

For the compound `CCCSc1nnc(-c2cc(C(C)(C)C)c(O)c(C(C)(C)C)c2)o1`, the IC50 in assay [1] is more than 20 µM; in assay [5], “Not Active”; in assay [2] it was more than 20 µM; in assay [3], 1.9 µM.

For `CC(C)(C)c1cc(-c2noc(NC#N)n2)cc(C(C)(C)C)c1O`, the 50% inhibitory concentration (IC50) in assay [1] is 0.064 µM; in assay [2], 51 µM; in assay [3], 1.2 µM; in assay [4], 1.4 µM.

For the compound `CC(C)(C)c1cc(-c2nsc(NS(C)(=O)=O)n2)cc(C(C)(C)C)c1O`, the half-inhibitory concentration (IC50) in assay [1] and in assay [2] was more than 20 µM throughout.

`CCSc1nnc(-c2cc(C(C)(C)C)c(O)c(C(C)(C)C)c2)o1`: the IC50 is 6.5 µM in assay [1], more than 20 µM in assay [2], 1.9 µM in assay [3] and 0.015 µM in assay [4].

Take `CCOc1nnc(-c2cc(C(C)(C)C)c(O)c(C(C)(C)C)c2)s1`: the half-maximal inhibitory concentration (IC50) in assay [1] came out at 6.1 µM; in assay [2], 3.4 µM; in assay [3], 1.2 µM; in assay [4], 0.07 µM.

Turning to `CC(C)Sc1nnc(-c2cc(C(C)(C)C)c(O)c(C(C)(C)C)c2)s1`, the IC50 was more than 20 µM in assay [1], more than 20 µM in assay [2], 13.6 µM in assay [3] and 8.5 µM in assay [4].

For `CC(C)(C)c1cc(-c2nnc(SCCC(=O)O)s2)cc(C(C)(C)C)c1O`, the IC50 in assay [1] is more than 20 µM; in assay [5], “Not Active”; in assay [2], more than 20 µM; in assay [3], more than 20 µM.

With `CC(C)(C)c1cc(-c2nnc(NN)s2)cc(C(C)(C)C)c1O`, the IC50 came out at 1.3 µM in assay [1], 17 µM in assay [2], 3.2 µM in assay [3] and 3.7 µM in assay [4].

As to `CSc1nnc(-c2cc(C(C)(C)C)c(O)c(C(C)(C)C)c2)o1`, the IC50 in assay [2] amounted to 12 µM; in assay [3] it was 1.2 µM; in assay [4], 0.14 µM.

For `COc1nc(-c2cc(C(C)(C)C)c(O)c(C(C)(C)C)c2)ns1`, the IC50 in assay [1] came out at 100 µM; in assay [2] it was 24 µM.

Take `CC(C)(C)c1cc(-c2nsc(N=C(N)N)n2)cc(C(C)(C)C)c1O`: the IC50 in assay [1] is 27 µM; in assay [2], 24 µM; in assay [3] it was 1.7 µM; in assay [4], more than 20 µM.

Turning to `CC(C)(C)c1cc(-c2nnc(NC#N)o2)cc(C(C)(C)C)c1O`, the 50% inhibitory concentration (IC50) in assay [1] was 11 µM; in assay [3], 5.8 µM; in assay [4], 0.39 µM.

As for `CC(C)(C)c1cc(-c2nnc(S)s2)cc(C(C)(C)C)c1O`, the 50% inhibitory concentration (IC50) was 20 µM in assay [2], more than 20 µM in assay [3] and 0.35 µM in assay [4].

With `CSc1nnc(-c2nc(C(C)(C)C)c(O)c(C(C)(C)C)n2)s1`, the IC50 was 0.097 µM in assay [2], 0.2 µM in assay [3] and 0.026 µM in assay [4].

Turning to `CCN(CC)CCSc1nnc(-c2cc(C(C)(C)C)c(O)c(C(C)(C)C)c2)s1`, the half-maximal inhibitory concentration (IC50) is 19 µM in assay [1], more than 20 µM in assay [2], more than 20 µM in assay [3] and more than 20 µM in assay [4].

Consider `COc1c(C(C)(C)C)cc(-c2nnc(SC)s2)cc1C(C)(C)C`, for which the 50% inhibitory concentration (IC50) in assay [1] worked out at 0.34 µM; in assay [2], 5.8 µM; in assay [3] it was 0.77 µM; in assay [4], 0.012 µM.

As to `CC(=O)Nc1nc(-c2cc(C(C)(C)C)c(O)c(C(C)(C)C)c2)ns1`, the IC50 in assay [1] and in assay [2] was more than 20 µM throughout.

For `COc1c(C(C)(C)C)cc(-c2nnc(S)s2)cc1C(C)(C)C`, the IC50 in assay [1] was 1.5 µM; in assay [2] it was more than 20 µM; in assay [3], more than 20 µM; in assay [4], 0.3 µM.

`CC(C)(C)c1cc(-c2nnc(SCc3ccccc3)s2)cc(C(C)(C)C)c1O`: the half-maximal inhibitory concentration (IC50) in assay [1], in assay [2], in assay [3] and in assay [4] was more than 20 µM throughout.

On to `CC(C)Sc1nnc(-c2cc(C(C)C)c(O)c(C(C)C)c2)s1`, for which the IC50 in assay [1] and in assay [2] was more than 20 µM in each case.

Take `CNc1nnc(-c2cc(C(C)(C)C)c(O)c(C(C)(C)C)c2)s1`: the IC50 was determined as 9.6 µM in assay [1], 0.52 µM in assay [2], 0.3 µM in assay [3] and 0.69 µM in assay [4].

With `CC[S+]([O-])c1nnc(-c2cc(C(C)(C)C)c(O)c(C(C)(C)C)c2)s1` (centres undefined), the half-inhibitory concentration (IC50) was more than 20 µM in assay [1], more than 20 µM in assay [2], 14.6 µM in assay [3] and 0.23 µM in assay [4].

On to `CCCSc1nnc(-c2cc(C(C)C)c(O)c(C(C)C)c2)s1`, for which the half-maximal inhibitory concentration (IC50) in assay [1] was more than 20 µM; in assay [2], more than 20 µM; in assay [3], more than 20 µM; in assay [4] it was 1.5 µM.

Regarding `CCSc1nnc(-c2cc(C(C)C)c(O)c(C(C)C)c2)s1`, the IC50 in assay [1] is more than 20 µM; in assay [2], more than 20 µM; in assay [3], more than 20 µM; in assay [4] it was 1.3 µM.

For `CC(C)(C)c1cc(-c2nnc(O)o2)cc(C(C)(C)C)c1O`, the IC50 in assay [1] was more than 20 µM; in assay [2], more than 20 µM; in assay [3] it was 3.2 µM; in assay [4], more than 20 µM.

With `C[S+]([O-])c1nnc(-c2cc(C(C)(C)C)c(O)c(C(C)(C)C)c2)s1` (centres undefined), the 50% inhibitory concentration (IC50) in assay [1], in assay [2] and in assay [3] was more than 20 µM in each case.
